{"source": "PubChem BioAssay (NCI)", "note": "Several values for one entry are separate records, joined by “and”; a condition that tells them apart may be missing. Equal entries are not always repeated.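 Each compound was tested at five concentrations against cells in 96-well plates for 48 hours. At the GI50, growth is halved. TGI marks complete inhibition of growth.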", "data": [{"system": "NCI-H226 lung", "test": "NCI anticancer screen, dose series, 48 h", "units": {"GI50": "µM", "TGI": "µM"}, "values": [{"smiles": "C=C(C)[C@@]12OC3(/C=C/C=C/CCCCC)O[C@@H]1[C@@H]1[C@@H]4O[C@]4(CO)[C@@H](O)[C@]4(O)C(=O)C(C)=C[C@H]4[C@@]1(O3)[C@H](C)[C@H]2OC(=O)c1ccccc1", "GI50": 1.68, "TGI": 3.21}, {"smiles": "C/C(=C\\CCc1ccoc1)CC/C=C(\\C)CCCC1=CC(=O)OC1", "GI50": 11, "TGI": 29.4}, {"smiles": "C=CC1CC12C(=O)C1OC2(C)C2C(=O)c3cc4ccccc4cc3C(=O)C12", "note": "(stereo not given)", "GI50": 21.5, "TGI": 79.8}]}, {"system": "UACC-62 melanoma", "test": "NCI anticancer screen, dose series, 48 h", "values": [{"smiles": "O=[n+]1c2c(n([O-])c3ccccc31)CCCCCCCCCC2", "TGI": "> 100 µM"}, {"smiles": "O=C(OCc1ccc2cccc(O)c2n1)N1CCN(C(=O)c2cc3cc(F)ccc3[nH]2)CC1", "GI50": "1.17 µM", "TGI": "2.43 µM"}, {"smiles": "OCCN1CN(CCO)CN(c2nc(N3CN(CCO)CN(CCO)C3)nc(N3CN(CCO)CN(CCO)C3)n2)C1", "GI50": "0.991 ng/mL", "TGI": "3.31 ng/mL"}, {"smiles": "C=C(F)C(=O)N1CCN(c2nc(OC[C@@H]3CCCN3C)nc3c2CCN(c2cccc4cccc(Cl)c24)C3)C[C@@H]1CC#N", "GI50": "1.66 µM", "TGI": "3.25 µM"}, {"smiles": "Cc1c2cccnc2c(C)c2c1c1cc(CO)ccc1n2C", "GI50": "1.41 µM", "TGI": "4.56 µM"}, {"smiles": "CCCCN(CCCC)CC(C(=O)Nc1ccc([N+](=O)[O-])cc1[N+](=O)[O-])/C(C)=N\\NC(=S)NN", "note": "(stereo not given)", "TGI": "> 100 µM"}, {"smiles": "S=C(N/N=C/c1ccco1)NC12CC3CC(CC(C3)C1)C2", "TGI": "> 100 µM"}, {"smiles": "CS(=O)(=O)N/N=C/CN1C(=O)c2ccccc2C1=O", "TGI": "> 100 µM"}, {"smiles": "CC(SC(C)C(=O)N/N=C/c1cccc(Cl)c1)C(=O)N/N=C\\c1cccc(Cl)c1", "note": "(stereo not given)", "GI50": "20.3 µM", "TGI": "46.2 µM"}, {"smiles": "CCOC(=O)/C=C/C(C(=O)/C=C/c1ccc(OC2CCCCO2)c(OC)c1)=C(O)\\C=C\\c1ccc(OC2CCCCO2)c(OC)c1", "note": "(stereo not given)", "GI50": "3.02 µM", "TGI": "12.8 µM"}, {"smiles": "O=C1c2ccccc2C2(Br)C(=O)c3ccccc3C12", "note": "(stereo not given)", "TGI": "> 100 µM"}, {"smiles": "CCN1CCN(c2ccc(Nc3cc(N(C)C(=O)Nc4c(Cl)c(OC)cc(OC)c4Cl)ncn3)cc2)CC1", "GI50": "1.66 µM", "TGI": "3.14 µM"}, {"smiles": "CCOC(=O)Oc1c(OC)cc(C(=O)NC2CCc3cc(OC)c(OC)c(OC)c3-c3ccc(SC)c(=O)cc32)cc1OC", "note": "(stereo not given)", "GI50": "0.00881 µM", "TGI": "> 70 µM"}, {"smiles": "COC(=O)c1cc2c(cc1O)[C@@H](NC(C)=O)CCc1cc(OC)c(OC)c(OC)c1-2", "GI50": "0.0159 µM", "TGI": "> 100 µM"}, {"smiles": "CC(C)(C)OC(=O)NCC(=O)OCc1ccccc1", "TGI": "> 100 µM"}, {"smiles": "CSc1nc2c(nc(C)c(=O)n2C2OCC(OC(C)=O)C(OC(C)=O)C2OC(C)=O)c(=O)[nH]1", "note": "(stereo not given)", "TGI": "> 100 µM"}, {"smiles": "O=S(O)CCCCSSCC(O)C(O)CSSCCCCS(=O)O", "note": "(stereo not given)", "TGI": "25.6 µM and 38.2 µM"}, {"smiles": "O=C1OC(c2ccccc2)=N/C1=C/C=C/c1ccco1", "TGI": "> 100 µM"}, {"smiles": "CC1OC2CC(=O)OC2C2=C1C(=O)c1c(O)cccc1C2=O", "note": "(stereo not given)", "GI50": "0.135 µM", "TGI": "0.287 µM"}, {"smiles": "CCC[CH2][Sn]([CH2]CCC)([CH2]CCC)[O]C(=O)CC", "GI50": "0.178 µM", "TGI": "0.405 µM"}, {"smiles": "C=C(C)[C@@]12OC3(/C=C/C=C/CCCCC)O[C@@H]1[C@@H]1[C@@H]4O[C@]4(CO)[C@@H](O)[C@]4(O)C(=O)C(C)=C[C@H]4[C@@]1(O3)[C@H](C)[C@H]2OC(=O)c1ccccc1", "GI50": "3.19 µM", "TGI": "6.86 µM"}, {"smiles": "C/C(=C\\CCc1ccoc1)CC/C=C(\\C)CCCC1=CC(=O)OC1", "GI50": "4.73 µM", "TGI": "29.7 µM"}]}, {"system": "HL-60(TB) leukemia", "test": "NCI anticancer screen, dose series, 48 h", "units": {"GI50": "µM"}, "values": [{"smiles": "O=[n+]1c2c(n([O-])c3ccccc31)CCCCCCCCCC2", "TGI": "> 100 µM"}, {"smiles": "O=C(OCc1ccc2cccc(O)c2n1)N1CCN(C(=O)c2cc3cc(F)ccc3[nH]2)CC1", "GI50": 1.31, "TGI": "3.47 µM"}, {"smiles": "C=C(F)C(=O)N1CCN(c2nc(OC[C@@H]3CCCN3C)nc3c2CCN(c2cccc4cccc(Cl)c24)C3)C[C@@H]1CC#N", "GI50": 0.86, "TGI": "2.5 µM"}, {"smiles": "CCCCN(CCCC)CC(C(=O)Nc1ccc([N+](=O)[O-])cc1[N+](=O)[O-])/C(C)=N\\NC(=S)NN", "note": "(stereo not given)", "TGI": "> 100 µM"}, {"smiles": "CS(=O)(=O)N/N=C/CN1C(=O)c2ccccc2C1=O", "TGI": "> 100 µM"}, {"smiles": "Ic1ccc(Nc2nc3nonc3nc2Nc2ccc(I)cc2)cc1", "GI50": 0.175, "TGI": "0.545 µM"}, {"smiles": "CC(SC(C)C(=O)N/N=C/c1cccc(Cl)c1)C(=O)N/N=C\\c1cccc(Cl)c1", "note": "(stereo not given)", "GI50": 6.24, "TGI": "> 100 µM"}, {"smiles": "CCOC(=O)/C=C/C(C(=O)/C=C/c1ccc(OC2CCCCO2)c(OC)c1)=C(O)\\C=C\\c1ccc(OC2CCCCO2)c(OC)c1", "note": "(stereo not given)", "GI50": 3.01, "TGI": "> 100 µM"}, {"smiles": "O=C1c2ccccc2C2(Br)C(=O)c3ccccc3C12", "note": "(stereo not given)", "TGI": "> 100 µM"}, {"smiles": "CCN1CCN(c2ccc(Nc3cc(N(C)C(=O)Nc4c(Cl)c(OC)cc(OC)c4Cl)ncn3)cc2)CC1", "GI50": 2.14, "TGI": "4.42 µM"}, {"smiles": "CC(C)(C)OC(=O)NCC(=O)OCc1ccccc1", "TGI": "> 100 µM"}, {"smiles": "CSc1nc2c(nc(C)c(=O)n2C2OCC(OC(C)=O)C(OC(C)=O)C2OC(C)=O)c(=O)[nH]1", "note": "(stereo not given)", "TGI": "> 100 µM"}, {"smiles": "O=S(O)CCCCSSCC(O)C(O)CSSCCCCS(=O)O", "note": "(stereo not given)", "TGI": "53.9 µM and > 100 µM"}, {"smiles": "CCC[CH2][Sn]([CH2]CCC)([CH2]CCC)[O]C(=O)CC", "GI50": 0.163, "TGI": "0.538 µM"}, {"smiles": "C/C(=C\\CCc1ccoc1)CC/C=C(\\C)CCCC1=CC(=O)OC1", "GI50": 6.3, "TGI": "32.7 µM"}, {"smiles": "C=CC1CC12C(=O)C1OC2(C)C2C(=O)c3cc4ccccc4cc3C(=O)C12", "note": "(stereo not given)", "GI50": 24.7, "TGI": "65.3 µM"}]}, {"system": "OVCAR-4 ovarian", "test": "NCI anticancer screen, dose series, 48 h", "values": [{"smiles": "O=C(OCc1ccc2cccc(O)c2n1)N1CCN(C(=O)c2cc3cc(F)ccc3[nH]2)CC1", "GI50": "1.35 µM", "TGI": "2.74 µM"}, {"smiles": "OCCN1CN(CCO)CN(c2nc(N3CN(CCO)CN(CCO)C3)nc(N3CN(CCO)CN(CCO)C3)n2)C1", "GI50": "1.69 ng/mL", "TGI": "4.06 ng/mL"}, {"smiles": "C=C(F)C(=O)N1CCN(c2nc(OC[C@@H]3CCCN3C)nc3c2CCN(c2cccc4cccc(Cl)c24)C3)C[C@@H]1CC#N", "GI50": "0.994 µM", "TGI": "3.3 µM"}, {"smiles": "Cc1c2cccnc2c(C)c2c1c1cc(CO)ccc1n2C", "GI50": "2.82 µM", "TGI": "10.5 µM"}, {"smiles": "S=C(N/N=C/c1ccco1)NC12CC3CC(CC(C3)C1)C2", "TGI": "> 100 µM"}, {"smiles": "CS(=O)(=O)N/N=C/CN1C(=O)c2ccccc2C1=O", "TGI": "> 100 µM"}, {"smiles": "Ic1ccc(Nc2nc3nonc3nc2Nc2ccc(I)cc2)cc1", "GI50": "0.246 µM", "TGI": "> 100 µM"}, {"smiles": "CC(SC(C)C(=O)N/N=C/c1cccc(Cl)c1)C(=O)N/N=C\\c1cccc(Cl)c1", "note": "(stereo not given)", "GI50": "1.63 µM", "TGI": "3.35 µM"}]}]}
